Columns and labels:
[1] = tested on: PC-3 prostate cancer cells; assay: Example T: sensitisation of PC-3 cells to doxorubicin, oxaliplatin, paclitaxel or vincristine, Wst1; type: cell-based, human; settings: PC-3 cells, 72 hours; for viability at 0.4 µM: compound 0.4 μM alone; for Doxorubicin 3.5 μM: percent cell survival / Oxaliplatin 100 μM: percent cell survival / Paclitaxel 50 μM: percent cell survival / Vincristine 100 nM: percent cell survival: chemotherapy agent alone normalized to 100%; for viability at 0.5 µM: compound 0.5 μM alone
[2] = tested on: PC3 human prostate cancer cells; assay: Example S: in vitro anticancer screen, PC-3 cells, Wst1; type: cell-based; settings: approximately 20 hours, Wst1
Description: Activity against PC3 human prostate cancer cells in vitro was assessed by a similar method. PC-3 prostate cancer cells were plated at 2×10^4 cells/well in 96 well flat bottom tissue culture plates, and incubated for approximately 20 hours with vehicle or test compounds at concentrations of 0.4, 0.5 or 2.5 μM as indicated for specific compounds in the right-hand column of Table 37. A 1/10th volume of Wst1 dye was added/well and incubated for two hours in the cell culture incubator. Samples were analyzed in triplicate on an EL800 Universal Microplate Reader at 450 nm, reference wavelength 630 nm.
(§1) Numerical values in the Table 37 represent percent of cancer cell survival relative to vehicle treated cells at the indicated concentrations, with values under 100 indicating anticancer cytotoxic activity at the drugs concentrations tested.

THP-1 cells = assay: Example D: LPS-triggered THP-1 cell death assay, acute/5-hour and chronic/48-hour; type: cell-based, Human; settings: for Viable cell percent change, Chronic/48-hour, Mean: 10 ng/ml LPS, 0.1 μM test compound; for activity relative to AC in the LPS-triggered THP-1 cell death assay, in words: 0.1 μM, 5-hour and 48-hour time points
Description: Compounds of the invention were tested at 0.1 μM versus AC in the LPS-triggered THP-1 cell death assay. Both acute/5-hour and chronic/48-hour phases of cell death were assessed. Compounds were screened in batches with DMSO as the negative control and AC as the high activity control.

[3] = tested on: 4T1 murine breast cancer cells; assay: Example S: in vitro anticancer screen, 4T1 cells, Wst1; type: cell-based, mouse; settings: 18 hr, Wst1; for viability at 1 µM / viability at 5 µM: Mus musculus, 4T1, 18 h; for viability at 1 µM: read-out: 4T1 1 μM, percent of cancer cell survival relative to vehicle treated cells; for viability at 5 µM: read-out: 4T1 5 μM, percent of cancer cell survival relative to vehicle treated cells
Description: Anticancer activity against 4T1 murine breast cancer cells cancer cells was assessed in vitro by seeding 1×10^4 cells/well in flat bottom culture plates, then treating with selected 1 μM or 5 μM concentrations of compounds for 18 hr after plating. Then 10 μL of Wst1 dye reagent, a tetrazolium dye indicator for […], was added/well and incubated approximately 2 hr before being assayed on the Biotek EL800 Universal microplate reader (450 nm, reference 630 nm).
as §1

[4] = Homo sapiens, Wst1, vehicle = 100, read-out: No Chemo: percent cell survival
[5] = compound 0.4 μM + doxorubicin 3.5 μM
[6] = compound 0.4 μM + oxaliplatin 100 μM
[7] = compound 0.4 μM + paclitaxel 50 μM
[8] = compound 0.4 μM + vincristine 100 nM
[9] = Homo sapiens, PC-3, read-out: PC-3, percent of cancer cell survival relative to vehicle treated cells
[10] = Homo sapiens, compound 2.5 μM alone, Wst1, vehicle = 100, read-out: No Chemo: percent cell survival
[11] = compound 2.5 μM + doxorubicin 3.5 μM
[12] = compound 2.5 μM + oxaliplatin 100 μM
[13] = compound 2.5 μM + paclitaxel 50 μM
[14] = compound 2.5 μM + vincristine 100 nM
[15] = Homo sapiens, PC-3, 2.5 μM, read-out: PC-3, percent of cancer cell survival relative to vehicle treated cells
[16] = compound 0.5 μM + doxorubicin 3.5 μM
[17] = compound 0.5 μM + oxaliplatin 100 μM
[18] = compound 0.5 μM + paclitaxel 50 μM
[19] = compound 0.5 μM + vincristine 100 nM

Compound	viability at 0.4 µM [1, 4] [%]	Doxorubicin 3.5 μM: percent cell survival [1, 5] [%]	Oxaliplatin 100 μM: percent cell survival [1, 6] [%]	Paclitaxel 50 μM: percent cell survival [1, 7] [%]	Vincristine 100 nM: percent cell survival [1, 8] [%]	viability at 0.4 µM [2, 9] [%]	Viable cell percent change, Chronic/48-hour, Mean (THP-1 cells) [%]	viability at 1 µM ([3]; 1 μM) [%]	viability at 5 µM ([3]; 5 μM) [%]	also measured
c1ccc(COc2cccc(CNc3ccnc4ccccc34)c2)cc1 [BU, N-[3-(Benzyloxy)benzyl]quinolin-4-amine]	24	48.1	57.2	31	26.7	24	18.10	17.6	21.4	activity relative to AC in the LPS-triggered THP-1 cell death assay, in words (THP-1 cells): equivalent activity to AC at both the 5-hour and 48-hour time points
c1cncc(CNc2ccnc3ccccc23)c1 [BY, N-(Pyridin-3-ylmethyl)quinolin-4-amine]	–	–	–	–	–	–	39.64	107	209	viability at 2.5 µM [1, 10]: 96.6%; Doxorubicin 3.5 μM: percent cell survival [1, 11]: 98.4%; Oxaliplatin 100 μM: percent cell survival [1, 12]: 101.1%; Paclitaxel 50 μM: percent cell survival [1, 13]: 99.9%; Vincristine 100 nM: percent cell survival [1, 14]: 94.1%; viability at 2.5 µM [2, 15]: 96.6%
CCCCCCOCCCCCOCCCn1cnc2cnc3ccccc3c21 [CF]	–	–	–	–	–	–	27.26	–	–	Doxorubicin 3.5 μM: percent cell survival [1, 11]: 68.8%; Oxaliplatin 100 μM: percent cell survival [1, 12]: 83.5%; Paclitaxel 50 μM: percent cell survival [1, 13]: 70.3%; Vincristine 100 nM: percent cell survival [1, 14]: 75.3%; No Chemo: percent cell survival ([1]; compound 2.5 μM alone, Wst1, vehicle = 100): 126.4%; PC-3, percent of cancer cell survival relative to vehicle treated cells ([2]; 2.5 μM): 126.4%; 4T1 1 μM, percent of cancer cell survival relative to vehicle treated cells ([3]; 1 μM): 96.7%; 4T1 5 μM, percent of cancer cell survival relative to vehicle treated cells ([3]; 5 μM): 28.6%
CCCCCCOCCCCCCCCNc1ccnc2ccccc12 [CH, N-[8-(Hexyloxy)octyl]quinolin-4-amine]	102	62.8	101.1	84.6	67.4	102	53.55	45.2	27.2	–
CCCCCCOCCCCCCNc1ccnc2ccccc12 [CK, N-[6-(Hexyloxy)hexyl]quinolin-4-amine]	–	–	–	–	–	–	42.23	62.5	45.3	viability at 0.5 µM [1, 4]: 51.4%; Doxorubicin 3.5 μM: percent cell survival [1, 16]: 111.6%; Oxaliplatin 100 μM: percent cell survival [1, 17]: 143%; Paclitaxel 50 μM: percent cell survival [1, 18]: 64.2%; Vincristine 100 nM: percent cell survival [1, 19]: 138.2%; viability at 0.5 µM [2, 9]: 51.4%
CCCCOCCCCCCNc1ccnc2ccccc12 [CL, N-(6-Butoxyhexyl)quinolin-4-amine]	58.1	22.6	23.2	50.3	27.7	58.1	29.43	25.6	19.5	activity relative to AC in the LPS-triggered THP-1 cell death assay, in words (THP-1 cells): equivalent activity to AC at both the 5-hour and 48-hour time points
c1ccc(COCCCCCCCCNc2ccnc3ccccc23)cc1 [CO, N-[8-(Benzyloxy)octyl]quinolin-4-amine]	77.1	28.4	29.2	51.6	32.8	77.1	43.95	28.4	55.6	–
CCCCCCOc1ccccc1OCCCCNc1ccnc2ccccc12 [CR, N-{4-[2-(Hexyloxy)phenoxy]butyl}quinolin-4-amine]	–	–	–	–	–	–	40.02	110	31.8	viability at 2.5 µM [1, 10]: 53.2%; Doxorubicin 3.5 μM: percent cell survival [1, 11]: 87.6%; Oxaliplatin 100 μM: percent cell survival [1, 12]: 89.3%; Paclitaxel 50 μM: percent cell survival [1, 13]: 93.4%; Vincristine 100 nM: percent cell survival [1, 14]: 86.9%; viability at 2.5 µM [2, 15]: 53.2%
CCCCCCOc1cccc(OCCCCNc2ccnc3ccccc23)c1 [CV, N-{4-[3-(Hexyloxy)phenoxy]butyl}quinolin-4-amine]	–	–	–	–	–	–	23.02	25.7	16.9	viability at 0.5 µM [1, 4]: 73.8%; Doxorubicin 3.5 μM: percent cell survival [1, 16]: 36.2%; Oxaliplatin 100 μM: percent cell survival [1, 17]: 30.6%; Paclitaxel 50 μM: percent cell survival [1, 18]: 21.4%; Vincristine 100 nM: percent cell survival [1, 19]: 36.1%; viability at 0.5 µM [2, 9]: 73.8%; activity relative to AC in the LPS-triggered THP-1 cell death assay, in words (THP-1 cells): equivalent activity to AC at both the 5-hour and 48-hour time points
CCCCCCOc1cccc(OCCNc2ccnc3ccccc23)c1 [CW, N-{2-[3-(Hexyloxy)phenoxy]ethyl}quinolin-4-amine]	98.5	31.9	26.6	55.9	69.4	98.5	43.71	25.1	18.4	–
CCCCCCOc1ccc(OCCCNc2ccnc3ccccc23)cc1 [CY, N-{3-[4-(Hexyloxy)phenoxy]propyl}quinolin-4-amine]	40.5	76.6	84.3	71.7	81.7	40.5	47.86	24.5	29.1	–
CC(C)(C)c1ccc(OCCCCCCCCNc2ccnc3ccccc23)cc1 [DA, N-[8-(4-tert-Butylphenoxy)octyl]quinolin-4-amine]	95.7	82.8	91.3	100.8	19.1	95.7	43.55	17.6	18.4	–
CCCCCCOCCCCCCCCn1ccc2ccccc21 [FW, 1-[8-(Hexyloxy)octyl]-1H-indole]	–	–	–	–	–	–	1.27	–	–	viability at 5 µM ([1]; Homo sapiens, compound 5 μM alone, Wst1, vehicle = 100, read-out: No Chemo: percent cell survival): 98.1%; Doxorubicin 3.5 μM: percent cell survival ([1]; compound 5 μM + doxorubicin 3.5 μM): 102.7%; Oxaliplatin 100 μM: percent cell survival ([1]; compound 5 μM + oxaliplatin 100 μM): 109.6%; Paclitaxel 50 μM: percent cell survival ([1]; compound 5 μM + paclitaxel 50 μM): 128.5%; Vincristine 100 nM: percent cell survival ([1]; compound 5 μM + vincristine 100 nM): 104.6%; viability at 5 µM ([2]; Homo sapiens, PC-3, 5 μM, read-out: PC-3, percent of cancer cell survival relative to vehicle treated cells): 98.1%

— patent publication US20250034139A1, “AMINE COMPOUNDS HAVING ANTI-INFLAMMATORY, ANTIFUNGAL, ANTIPARASITIC, AND ANTICANCER ACTIVITY” (PHARMA CINQ, LLC, priority 2013, published 2025)
